Assay results as given in the NIST ThermoML archive (doi:10.1021/je900134z).
Numbers after ± are expanded uncertainties.

Columns and labels:
[1] = refractive index (Na D-line) (dimensionless); conditions: 101.33 kPa, Liquid
[2] = for mass density / viscosity: 101.33 kPa, Liquid; for viscosity: Surface Light Scattering; for surface tension liquid-gas: Drop weight

CCCCn1cc[n+](CCCC)c1.O=S(=O)([N-]S(=O)(=O)C(F)(F)F)C(F)(F)F
refractive index ([1]; 283.15 K): 1.4376 ± 0.0016
refractive index ([1]; 293.15 K): 1.4347 ± 0.0015
refractive index ([1]; 303.15 K): 1.4324 ± 0.0015
refractive index ([1]; 313.15 K): 1.4298 ± 0.0015
mass density ([2]; 273.15 K): 1362.73 ± 2 kg/m3
viscosity ([2]; 273.15 K): 277.9 ± 17 mPa·s
mass density ([2]; 278.15 K): 1358.06 ± 2 kg/m3
viscosity ([2]; 278.15 K): 203 ± 12 mPa·s
mass density ([2]; 283.15 K): 1353.51 ± 2 kg/m3
viscosity ([2]; 283.15 K): 152.1 ± 9.2 mPa·s
mass density ([2]; 288.15 K): 1349.01 ± 1.9 kg/m3
viscosity ([2]; 288.15 K): 115.3 ± 6.9 mPa·s
surface tension liquid-gas ([2]; 293.15 K): 29.55 ± 0.62 mN/m
mass density ([2]; 293.15 K): 1344.5 ± 1.9 kg/m3
viscosity ([2]; 293.15 K): 89.5 ± 5.4 mPa·s
mass density ([2]; 298.15 K): 1340.01 ± 1.9 kg/m3
mass density ([2]; 303.15 K): 1335.51 ± 1.9 kg/m3
viscosity ([2]; 303.15 K): 57.2 ± 3.4 mPa·s
mass density ([2]; 308.15 K): 1331.02 ± 1.9 kg/m3
mass density ([2]; 313.15 K): 1326.56 ± 1.9 kg/m3
viscosity ([2]; 313.15 K): 37.9 ± 2.3 mPa·s
mass density ([2]; 318.15 K): 1322.09 ± 1.9 kg/m3
viscosity ([2]; 323.15 K): 26.5 ± 1.6 mPa·s
mass density ([2]; 328.15 K): 1313.2 ± 1.8 kg/m3
mass density ([2]; 333.15 K): 1308.77 ± 1.8 kg/m3
viscosity ([2]; 333.15 K): 19.2 ± 1.2 mPa·s
mass density ([2]; 338.15 K): 1304.36 ± 1.8 kg/m3
mass density ([2]; 343.15 K): 1299.99 ± 1.8 kg/m3
mass density ([2]; 348.15 K): 1295.57 ± 1.8 kg/m3
mass density ([2]; 353.15 K): 1291.2 ± 1.8 kg/m3
mass density ([2]; 358.15 K): 1286.84 ± 1.7 kg/m3
mass density ([2]; 363.15 K): 1282.5 ± 1.7 kg/m3

CCn1cc[n+](C)c1.CS(=O)(=O)[O-] [1-ethyl-3-methylimidazolium methanesulfonate]
refractive index ([1]; 283.15 K): 1.5018 ± 0.0015
refractive index ([1]; 293.15 K): 1.4996 ± 0.0015
refractive index ([1]; 303.15 K): 1.4977 ± 0.0015
refractive index ([1]; 313.15 K): 1.4949 ± 0.0015
mass density ([2]; 273.15 K): 1259.14 ± 1.6 kg/m3
viscosity ([2]; 273.15 K): 1112.6 ± 67 mPa·s
mass density ([2]; 278.15 K): 1255.59 ± 1.6 kg/m3
viscosity ([2]; 278.15 K): 676.3 ± 41 mPa·s
mass density ([2]; 283.15 K): 1252.04 ± 1.5 kg/m3
viscosity ([2]; 283.15 K): 435.5 ± 26 mPa·s
mass density ([2]; 288.15 K): 1248.49 ± 1.5 kg/m3
viscosity ([2]; 288.15 K): 290.1 ± 18 mPa·s
surface tension liquid-gas ([2]; 293.15 K): 50.72 ± 1.1 mN/m
mass density ([2]; 293.15 K): 1244.96 ± 1.5 kg/m3
viscosity ([2]; 293.15 K): 205.2 ± 12 mPa·s
mass density ([2]; 298.15 K): 1241.52 ± 1.5 kg/m3
mass density ([2]; 303.15 K): 1238.15 ± 1.5 kg/m3
viscosity ([2]; 303.15 K): 112.9 ± 6.8 mPa·s
mass density ([2]; 308.15 K): 1234.77 ± 1.5 kg/m3
mass density ([2]; 313.15 K): 1231.4 ± 1.4 kg/m3
viscosity ([2]; 313.15 K): 69 ± 4.2 mPa·s
mass density ([2]; 318.15 K): 1228.03 ± 1.4 kg/m3
viscosity ([2]; 323.15 K): 44.6 ± 2.7 mPa·s
mass density ([2]; 328.15 K): 1221.33 ± 1.4 kg/m3
mass density ([2]; 333.15 K): 1218 ± 1.4 kg/m3
viscosity ([2]; 333.15 K): 31.7 ± 1.9 mPa·s
mass density ([2]; 338.15 K): 1214.69 ± 1.4 kg/m3
mass density ([2]; 343.15 K): 1211.38 ± 1.4 kg/m3
mass density ([2]; 348.15 K): 1208.09 ± 1.4 kg/m3
mass density ([2]; 353.15 K): 1204.82 ± 1.4 kg/m3
mass density ([2]; 358.15 K): 1201.56 ± 1.4 kg/m3
mass density ([2]; 363.15 K): 1198.31 ± 1.3 kg/m3

CCn1cc[n+](C)c1.CO[PH](=O)[O-] [1-ethyl-3-methylimidazolium methyl phosphonate]
refractive index ([1]; 283.15 K): 1.4969 ± 0.0016
refractive index ([1]; 293.15 K): 1.4935 ± 0.0016
refractive index ([1]; 303.15 K): 1.4928 ± 0.0016
refractive index ([1]; 313.15 K): 1.4902 ± 0.0016
mass density ([2]; 273.15 K): 1208.75 ± 2.2 kg/m3
viscosity ([2]; 273.15 K): 563.9 ± 34 mPa·s
mass density ([2]; 278.15 K): 1205.29 ± 2.2 kg/m3
viscosity ([2]; 278.15 K): 379.6 ± 23 mPa·s
mass density ([2]; 283.15 K): 1201.82 ± 2.2 kg/m3
viscosity ([2]; 283.15 K): 266.6 ± 16 mPa·s
mass density ([2]; 288.15 K): 1198.42 ± 2.1 kg/m3
viscosity ([2]; 288.15 K): 193.2 ± 12 mPa·s
surface tension liquid-gas ([2]; 293.15 K): 45.49 ± 1 mN/m
mass density ([2]; 293.15 K): 1195.12 ± 2.1 kg/m3
viscosity ([2]; 293.15 K): 143.1 ± 8.7 mPa·s
mass density ([2]; 298.15 K): 1191.82 ± 2.1 kg/m3
mass density ([2]; 303.15 K): 1188.5 ± 2.1 kg/m3
viscosity ([2]; 303.15 K): 83.4 ± 5.1 mPa·s
mass density ([2]; 308.15 K): 1185.21 ± 2.1 kg/m3
mass density ([2]; 313.15 K): 1181.92 ± 2.1 kg/m3
viscosity ([2]; 313.15 K): 53.9 ± 3.3 mPa·s
mass density ([2]; 318.15 K): 1178.65 ± 2 kg/m3
mass density ([2]; 323.15 K): 1175.39 ± 2 kg/m3
viscosity ([2]; 323.15 K): 36.4 ± 2.2 mPa·s
mass density ([2]; 328.15 K): 1172.14 ± 2 kg/m3
mass density ([2]; 333.15 K): 1168.89 ± 2 kg/m3
viscosity ([2]; 333.15 K): 27.4 ± 1.7 mPa·s
mass density ([2]; 338.15 K): 1165.66 ± 2 kg/m3
mass density ([2]; 343.15 K): 1162.45 ± 2 kg/m3
mass density ([2]; 348.15 K): 1159.25 ± 1.9 kg/m3
mass density ([2]; 353.15 K): 1156.06 ± 1.9 kg/m3
mass density ([2]; 358.15 K): 1152.9 ± 1.9 kg/m3
mass density ([2]; 363.15 K): 1149.73 ± 1.9 kg/m3

CCCCCCCCOS(=O)(=O)[O-].CCn1cc[n+](C)c1 [1-ethyl-3-methylimidazolium octyl sulfate]
refractive index ([1]; 283.15 K): 1.4786 ± 0.0015
refractive index ([1]; 293.15 K): 1.4766 ± 0.0015
refractive index ([1]; 303.15 K): 1.4737 ± 0.0015
refractive index ([1]; 313.15 K): 1.4712 ± 0.0015
mass density ([2]; 273.15 K): 1111.56 ± 1.1 kg/m3
viscosity ([2]; 273.15 K): 3894.8 ± 230 mPa·s
mass density ([2]; 278.15 K): 1108 ± 1.1 kg/m3
viscosity ([2]; 278.15 K): 2429.9 ± 150 mPa·s
mass density ([2]; 283.15 K): 1104.34 ± 1.1 kg/m3
viscosity ([2]; 283.15 K): 1578.5 ± 95 mPa·s
mass density ([2]; 288.15 K): 1100.82 ± 1.1 kg/m3
viscosity ([2]; 288.15 K): 1045.1 ± 63 mPa·s
surface tension liquid-gas ([2]; 293.15 K): 31 ± 0.65 mN/m
mass density ([2]; 293.15 K): 1097.48 ± 1.1 kg/m3
viscosity ([2]; 293.15 K): 717.8 ± 43 mPa·s
mass density ([2]; 298.15 K): 1094.15 ± 1.1 kg/m3
mass density ([2]; 303.15 K): 1090.83 ± 1.1 kg/m3
viscosity ([2]; 303.15 K): 368.1 ± 22 mPa·s
mass density ([2]; 308.15 K): 1087.52 ± 1.1 kg/m3
mass density ([2]; 313.15 K): 1084.2 ± 1 kg/m3
viscosity ([2]; 313.15 K): 208.1 ± 12 mPa·s
mass density ([2]; 318.15 K): 1080.97 ± 1 kg/m3
viscosity ([2]; 323.15 K): 126.2 ± 7.6 mPa·s
mass density ([2]; 328.15 K): 1074.55 ± 1 kg/m3
mass density ([2]; 333.15 K): 1071.34 ± 1 kg/m3
viscosity ([2]; 333.15 K): 80.9 ± 4.9 mPa·s
mass density ([2]; 338.15 K): 1068.14 ± 1 kg/m3
mass density ([2]; 343.15 K): 1064.94 ± 0.99 kg/m3
mass density ([2]; 348.15 K): 1061.76 ± 0.98 kg/m3
mass density ([2]; 353.15 K): 1058.59 ± 0.97 kg/m3
mass density ([2]; 358.15 K): 1055.42 ± 0.96 kg/m3
mass density ([2]; 363.15 K): 1052.26 ± 0.96 kg/m3
